In US20200003756A1, “METHOD FOR OBSERVING SEBACEOUS GLAND” (MANDOM CORPORATION, priority 2017, published 2020):

Legend:
[1] = test system: sebaceous-gland-structure A; test: Observation of inside of sebaceous-gland-structure, lipid droplets of sebum in outermost layer / degree of progress of sebum production (Example 2); type: cell-based; settings: test sample B, linoleic acid 1×10^−4 M, 24 hours (Experiment number 8); FIGS. 8 and 10
Method: Linoleic acid and linoleic acid receptor antagonist (manufactured by Abeam plc, trade name: GSK-3787) as test substances were added to the mixed medium obtained in Preparation Example 1 so that the concentration of linoleic acid was 1×10^−4 M and so that the concentration of the test substance was 1 μM, to obtain a test sample D.
One milliliter of the test sample A was added to each well of a 24-well plate. Next, the sebaceous-gland-structure A obtained in Preparation Example 6 was cultured in a suspended state in the test sample A in each well of the 24-well plate in the presence of 5% by volume carbon dioxide at 37° C. for 24 hours, to contact the sebaceous-gland-structure A with the test sample A (Experiment number 7). […]
Furthermore, the state of each cell of 40 cells in the outermost layer shown in each figure was evaluated by using the results shown in FIGS. 7 to 9 on the basis of the evaluation criterion described below. […]
Next, the degree of progress of sebum production in the sebaceous gland cell contained in the sebaceous-gland-structure A was evaluated by calculating the mean value of the points in the 40 cells in the outermost layer in FIGS. 7 to 9. […]

[2] = test system: sebaceous-gland-structure A; test: Degree of sebum production from three-dimensional image analysis of outermost layer (Example 4); type: cell-based; settings: linoleic acid 1×10^−4 M, 24 hours
Method: Linoleic acid and phytic acid as test substances were added to the mixed medium obtained in Preparation Example 1 (test sample A) so that the concentration of linoleic acid was 1×10^−4M and so that the concentration of the test sample was 100 μM, to obtain a test sample E. One milliliter of the test sample A was added to each well of a 24-well plate. Text, the sebaceous-gland-structure A obtained in Preparation Example 6 was cultured in a suspended state in the test sample A contained in each well of the 24-well plate in the presence of 5% by volume carbon dioxide at 37° C. for 24 hours, to contact the sebaceous-gland-structure A with the test sample A (Experiment number 10). In addition, the sebaceous-gland-structure A was contacted with the test sample B (Experiment number 11) or the test sample E (Experiment number 12) in the same manner as in Experiment, number 10 except that in Experiment number 10, the test sample B obtained in Example 1(1) (Experiment number 11) or the test sample E obtained in Example 4(1) (Experiment number 12) was used in place of the test sample A. Each of observation samples of Experiment numbers 10 to 12 was obtained in the same manner as in Preparation Example 7 except that in Preparation Example 7, the cultured sebaceous-gland-structure A obtained in Example 4(2) (Experiment numbers 10 to 12) was used in place of the cultured sebaceous-gland-structure A obtained in Preparation Example 6. The appearance of the sebaceous-gland-structure A contained in the observation sample of each of Experiment numbers 10 to 12 obtained in Example 4(3) was observed under a confocal microscope by using image analysis software (manufactured b Bitplane AG, trade name: Imaris), thereby giving three-dimensional image of the sebaceous-gland-structure A. Next, information of the outermost layer of the sebaceous-gland-structure A was extracted from the data of the resulting three-dimensional image by using image analysis software (manufactured by Bitplane AG, trade name: Imaris). Thereafter, the whole volume of the cells present in the outermost layer was calculated from the extracted information, and thereafter the sebum droplets contained in the outermost layer were counted. Using the whole volume of the cells present in the outermost layer and the number of lipid droplets of the sebum the degree of sebum production was calculated according to Formula (I): [Degree of Sebum production]=[Number of lipid droplets of sebum]/[Whole volume of cells present in outermost layer] (I)

In the case of `CCCCC/C=C\C/C=C\CCCCCCCC(=O)O` [linoleic acid, Linoleic acid], the “lipid droplets of sebum in the outermost layer of the sebaceous-gland-structure A” value [1] is reported as “lipid droplets of sebum were found”, the sebum production-regulating action ([2]; conclusion from FIG. 11) is reported as “sebum production-promoting action” and the “degree of sebum production (number of lipid droplets of sebum / whole volume of cells present in outermost layer)” value ([2]; test sample B, compared with test sample A not containing linoleic acid, FIG. 11) is reported as “higher”.
